PubChem BioAssay AID248 (DTP/NCI, 2004)
Where “and” joins values, the source holds several entries; their conditions need not be identical. Equal entries are not always repeated. Toxic doses and inconclusive results are not listed. Cut-off read from the data, not from the text of the source: active = T/C of 150% or more; inactive = T/C below 125%.

Test system: L1210 leukemia ip in BDF1 mice, survival T/C
Assay: NCI In Vivo Anticancer Drug Screen. Data for tumor model L1210 Leukemia (intraperitoneal) in B6D2F1 (BDF1) mice
Conditions: endpoint: mean survival time, higher = longer survival
Summary of the method: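 Survival endpoint. Drug-treated group vs vehicle group, expressed as T divided by C. Tumor passaged by transplantation.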

[1] = dose: 100.0 mg/kg/injection, schedule: Q04DX003 (ip), vehicle: Klucel (hydroxypropylcellulose) (HPC)
[2] = dose: 200.0 mg/kg/injection, schedule: Q04DX003 (ip), vehicle: Klucel (hydroxypropylcellulose) (HPC)
[3] = dose: 100.0 mg/kg/injection, schedule: Q01DX009 (ip), vehicle: saline with Tween-80
[4] = dose: 200.0 mg/kg/injection, schedule: Q01DX009 (ip), vehicle: saline with Tween-80
[5] = dose: 100.0 mg/kg/injection, schedule: Q01DX001 (ip), vehicle: saline
[6] = dose: 200.0 mg/kg/injection, schedule: Q01DX001 (ip), vehicle: saline
[7] = dose: 400.0 mg/kg/injection, schedule: Q01DX001 (ip), vehicle: saline
[8] = dose: 100.0 mg/kg/injection, schedule: Q01DX001 (ip), vehicle: saline with Tween-80
[9] = dose: 100.0 mg/kg/injection, schedule: Q04DX003 (ip), vehicle: saline with Tween-80
[10] = dose: 200.0 mg/kg/injection, schedule: Q01DX001 (ip), vehicle: saline with Tween-80
[11] = dose: 200.0 mg/kg/injection, schedule: Q04DX003 (ip), vehicle: saline with Tween-80
[12] = dose: 400.0 mg/kg/injection, schedule: Q01DX001 (ip), vehicle: saline with Tween-80
[13] = dose: 400.0 mg/kg/injection, schedule: Q04DX003 (ip), vehicle: saline with Tween-80
[14] = dose: 100.0 mg/kg/injection, schedule: Q01DX009 (ip), vehicle: Klucel (hydroxypropylcellulose) (HPC)
[15] = dose: 200.0 mg/kg/injection, schedule: Q01DX009 (ip), vehicle: Klucel (hydroxypropylcellulose) (HPC)
[16] = dose: 400.0 mg/kg/injection, schedule: Q01DX009 (ip), vehicle: Klucel (hydroxypropylcellulose) (HPC)

Measured: T/C

COc1ccc(OC)c(NC(=O)N(CCC#N)C2CCCCC2)c1
inactive: [1] 91 % of control | [2] 91 % of control

CC(=O)Nc1ccc(/C=N/Nc2c([N+](=O)[O-])cc(C(F)(F)F)cc2[N+](=O)[O-])cc1
inactive: [3] 100 % of control | [4] 96 % of control

CCOc1ccc2ccccc2c1
inactive: [5] 102 % of control | [6] 98 % of control | [7] 102 % of control

C=CCC(CO)(c1ccccc1)c1ccccc1
inactive: dose: 50.0 mg/kg/injection, schedule: Q01DX009 (ip), vehicle: saline with Tween-80 97 % of control | [3] 87 % of control | [4] 97 % of control

CC1=NC(C#N)=C(C#N)N=C(C)C1
inactive: dose: 6.25 mg/kg/injection, schedule: Q01DX009 (ip), vehicle: Klucel (hydroxypropylcellulose) (HPC) 107 % of control | dose: 12.5 mg/kg/injection, schedule: Q01DX009 (ip), vehicle: Klucel (hydroxypropylcellulose) (HPC) 98 % of control | dose: 25.0 mg/kg/injection, schedule: Q01DX009 (ip), vehicle: Klucel (hydroxypropylcellulose) (HPC) 119 % of control | dose: 50.0 mg/kg/injection, schedule: Q01DX009 (ip), vehicle: Klucel (hydroxypropylcellulose) (HPC) 107 % of control

OCC1OC(n2ccc3c(SCc4ccccc4)ncnc32)C(O)C1O (stereo not given)
inactive: dose: 25.0 mg/kg/injection, schedule: Q01DX001 (ip), vehicle: saline 110 % of control | dose: 50.0 mg/kg/injection, schedule: Q01DX001 (ip), vehicle: saline 107 % of control | [5] 98 % of control | [6] 116 % of control

COC1(C)C(=O)Oc2c1c1ccccc1c1ccccc21 (stereo not given)
inactive: dose: 75.0 mg/kg/injection, schedule: Q01DX001 (ip), vehicle: carboxymethylcellulose (CMC) 94 % of control | dose: 150.0 mg/kg/injection, schedule: Q01DX001 (ip), vehicle: carboxymethylcellulose (CMC) 89 % of control

CSc1ncnc2c1ncn2-n1c(C)ccc1C
inactive: [8] 89 % of control | [9] 96 % of control | [10] 90 % of control | [11] 94 % of control | [12] 93 % of control | [13] 93 % of control

Cc1ccc(NC(=O)CS)cc1
inactive: [9] 100 % of control | [11] 93 % of control

CCOC(=O)/C=C1\NC(=O)N(CCCN2C(=O)N/C(=C\C(=O)OCC)C2=O)C1=O
inactive: [3] 97 % of control

c1ccc(Cc2[nH]nc(-c3ccccc3)c2N=Nc2ccccc2)cc1
inactive: dose: 100.0 mg/kg/injection, schedule: Q01DX001 (ip), vehicle: Klucel (hydroxypropylcellulose) (HPC) 94 % of control | [1] 103 % of control | dose: 200.0 mg/kg/injection, schedule: Q01DX001 (ip), vehicle: Klucel (hydroxypropylcellulose) (HPC) 94 % of control | [2] 103 % of control | dose: 400.0 mg/kg/injection, schedule: Q01DX001 (ip), vehicle: Klucel (hydroxypropylcellulose) (HPC) 91 % of control | dose: 400.0 mg/kg/injection, schedule: Q04DX003 (ip), vehicle: Klucel (hydroxypropylcellulose) (HPC) 100 % of control

CC(C)(C)OC(=O)CSC#N
inactive: dose: 5.0 mg/kg/injection, schedule: Q01DX001 (ip), vehicle: saline 101 % of control | dose: 10.0 mg/kg/injection, schedule: Q01DX001 (ip), vehicle: saline 95 % of control | dose: 20.0 mg/kg/injection, schedule: Q01DX001 (ip), vehicle: saline 101 % of control

CCCC[N+](C)(C)CC[N+](C)(C)CCCC
inactive: [5] 102 % of control | [6] 105 % of control | [7] 102 % of control

Cc1ccc(S(=O)(=O)OCCOS(=O)(=O)c2ccc(C)cc2)cc1
inactive: [1] 90 % of control | [2] 87 % of control

Cc1ccc(NC(=S)Nc2ccccc2F)cc1
inactive: [8] 94 % of control and 100 % of control | dose: 100.0 mg/kg/injection, schedule: Q04DX002 (ip), vehicle: saline with Tween-80 100 % of control and 104 % of control | [10] 98 % of control and 100 % of control | dose: 200.0 mg/kg/injection, schedule: Q04DX002 (ip), vehicle: saline with Tween-80 95 % of control | [12] 96 % of control and 103 % of control | dose: 400.0 mg/kg/injection, schedule: Q04DX002 (ip), vehicle: saline with Tween-80 92 % of control and 104 % of control

CNS(=O)(=O)c1ccccc1C(O)(c1ccccc1)c1ccccc1
inactive: [5] 94 % of control | [6] 100 % of control | [7] 111 % of control

NC(=O)NC(=O)c1ccccn1
inactive: dose: 75.0 mg/kg/injection, schedule: Q01DX001 (ip), vehicle: saline 106 % of control | dose: 150.0 mg/kg/injection, schedule: Q01DX001 (ip), vehicle: saline 97 % of control | dose: 300.0 mg/kg/injection, schedule: Q01DX001 (ip), vehicle: saline 100 % of control

CCOC(=O)c1ccc(NC(=O)/C=C/C(=O)O)cc1
inactive: [14] 100 % of control | [15] 95 % of control | [16] 98 % of control

COC(=O)c1ccc(OC(=O)Nc2ccc(C)cc2)cc1
inactive: [14] 101 % of control | [15] 100 % of control | [16] 101 % of control

COC1C=CC23c4cc5c(cc4C(O)OC2CN(C)C3C1)OCO5 (stereo not given)
inactive: [5] 106 % of control

CCCCCCCCCCCCCCCCCC(=O)OCC1OC(OC2(COC(=O)CCCCCCCCCCCCCCCCC)OC(COC(=O)CCCCCCCCCCCCCCCCC)C(OC(=O)CCCCCCCCCCCCCCCCC)C2OC(=O)CCCCCCCCCCCCCCCCC)C(OC(=O)CCCCCCCCCCCCCCCCC)C(OC(=O)CCCCCCCCCCCCCCCCC)C1OC(=O)CCCCCCCCCCCCCCCCC (stereo not given)
inactive: dose: 100.0 mg/kg/injection, schedule: Q01DX001 (ip), vehicle: other 93 % of control | dose: 200.0 mg/kg/injection, schedule: Q01DX001 (ip), vehicle: other 90 % of control | dose: 400.0 mg/kg/injection, schedule: Q01DX001 (ip), vehicle: other 97 % of control

Cc1ccc(S(=O)(=O)CCCCCl)cc1
inactive: [5] 101 % of control | dose: 100.0 mg/kg/injection, schedule: Q01DX009 (ip), vehicle: saline 100 % of control | dose: 100.0 mg/kg/injection, schedule: Q04DX003 (ip), vehicle: saline 95 % of control | [6] 96 % of control | dose: 200.0 mg/kg/injection, schedule: Q01DX009 (ip), vehicle: saline 97 % of control | dose: 200.0 mg/kg/injection, schedule: Q04DX003 (ip), vehicle: saline 92 % of control | [7] 104 % of control | dose: 400.0 mg/kg/injection, schedule: Q01DX009 (ip), vehicle: saline 89 % of control | dose: 400.0 mg/kg/injection, schedule: Q04DX003 (ip), vehicle: saline 98 % of control

C=CCOC(=O)Nc1cccc(OC(=O)NC(C)(C)C)c1
inactive: [9] 105 % of control | [11] 99 % of control | [13] 98 % of control

COc1ccccc1C(=O)N/N=C/c1ccc(O)cc1O
inactive: [14] 102 % of control | [15] 96 % of control | [16] 100 % of control
